# pIC50: −log10 of the molar value.
# Assays:
# [1] = value mentioned in the sources; read-out: IC50 concentration in cell-based experiments (in the sources); cited from earlier work
# NIH/3T3 cells = assay: IC50 in NIH/3T3 cells (cytotoxicity); format: cell-based; details: read-out: IC50 concentration in NIH/3T3 cells
# 5RP7 cells = assay: IC50 in 5RP7 cells (cytotoxicity); format: cell-based; details: read-out: IC50 concentration in 5RP7 cells
# MCF-7 cells = assay: Electron micrographs of MCF-7 cells; format: cell-based, human; details: MCF-7 cells treated for 24 hours
# Source text: In FIG. 2, electron micrographs of the MCF-7 cells are seen.
# FIG. 2: Electron transmission micrographs of MCF-7 cells.
# [2] = tested on: MCF-7 human breast cancer cells; assay: IC50 in MCF-7 cells (cytotoxicity); format: cell-based; details: read-out: IC50 concentration in MCF-7 human breast cancer cells
# [3] = tested on: A549 lung cancer cell line; assay: Microscopy of structural changes in A549 cells; format: cell-based, human; details: A549 cells treated for 24 hours
# Source text: In FIG. 3, the confocal microscope images of the study made on A549 type cells which is a lung cancer cell line are given.
# FIG. 3: Electron transmission microscope images showing the structural changes in A549 cells.
# [4] = tested on: A549 human lung adeno-carcinoma cells; assay: MTT cyto-toxicity test, A549 cells; format: cell-based; details: 24 hours incubation, read-out: IC50 concentration in A549 lung cancer cells
# Procedure: A549 human lung adeno-carcinoma cells have been implanted to the cell culture plates with 96 wells such that there are 2×10^3 cells per well. The cells implanted to the plate have been incubated at 37° C. and in a medium of 5% carbon dioxide. A549 cells have been incubated for 24 hours in the concentration range of 5-65 μM with synthesized ceranib-2. At the end of the duration, 20 μL MTT dye (5 mg/mL) has been added to each well and it has been incubated for 2 hours more at 37° C. After the incubation, the liquid part in each well on the plate is discharged and 200 μL DMSO has been added for dissolving the formazan salts formed by viable cells and it has been waited for 10 minutes at room temperature. The color change occurring has been read at wavelength of 570 nm on the ELx808-IU (Bio-Tek, USA) plate reader. The experiment has been repeated 3 times. Separate viability values have been calculated according to the control group for each dose.
# synergistic tumor model = details: 20-50 mg/kg; cited from earlier work
# MCF-7 cell line = assay: Confocal microscopy of MCF-7 cells; format: cell-based, human; details: MCF-7 cells treated for 24 hours, acridine orange and phalloidine
# Source text: In FIG. 1, the confocal microscopy images are provided belonging to the study made on the MCF-7 cell line. In the control cells, a tight and normal cell and cell nucleus structure are seen (FIG. 1A).
# FIG. 1: Confocal electron transmission microscope image of MCF-7 cells painted with acridine orange and phalloidine.
smiles,measurement,setting,value
"COc1ccc(C=CC(=O)c2c(-c3ccccc3)c3ccccc3[nH]c2=O)cc1 [ceranib-2, 3-[3-(4-methoxyphenyl)-1-oxo-2-prpen-1-yl]-4-phenyl-2(1H)-quinolinone]",pIC50,[1],~4.55
same,pIC50,NIH/3T3 cells,5.30
same,pIC50,5RP7 cells,5.52
same,"Cell ultrastructure, electron micrographs (FIG. 2)",MCF-7 cells,the nucleus membrane is lost and the mitochondria is deformed
same,pIC50,[2],4.89
same,"Structural changes in cells, microscopy (FIG. 3)",[3],"the cell nucleus is fragmentized, the cell shape is transformed from oval to round and deformations begin in the cell membrane, lipid drops are formed inside the cell, DNA fragmentizing occurs and holes occur inside the cell"
same,pIC50,[4],4.85
same,Toxicity in vivo,synergistic tumor model,without leading to toxicity
same,Tumor growth,synergistic tumor model,inhibits tumor growth
same,"Cell morphology, confocal microscopy (FIG. 1)",MCF-7 cell line,"condensation is observed in the chromatin, holes are observed in the cell structure, shrunken cell nucleus is observed and fragmentizing cells are observed"
